Source: article PMC9736079, “ES-Screen: A Novel Electrostatics-Driven Method for Drug Discovery Virtual Screening” (International Journal of Molecular Sciences, 2022)

Assays:
[1] = molecular target: human aldose reductase (AKR1B1) (Homo sapiens, UniProt P15121); assay: Surface Plasmon Resonance (SPR) binding assay, immobilized protein; conditions: for binding to immobilized AKR1B1 in SPR: 200, 100, 50, 25, 12 μM, triplicates
Procedure: (§1) Briefly, mouse extracellular domain 1–2 (EC 1–2) C-terminally cysteine-tagged FABP4 and Aldose Reductase recombinant protein was immobilized on flow cell (FC) 2 in HEPES buffered saline (10 mM Hepes, pH 7.4, and 150 mM NaCl, 3 mM CaCl2) using a thiol-coupling kit according to the manufacturer’s protocol, resulting in immobilization levels of 4580 response units (RU). FC1 was only activated and inactivated and used as a reference. […] Each injection was repeated three times for 60 s. FC1 signals were deducted from FC2 for background noise elimination.

[2] = molecular target: T1, human adipocyte fatty acid-binding protein (FABP4) (Homo sapiens, UniProt P15090); assay: as above; conditions: for binding to immobilized FABP4 in SPR: 200, 100, 50, 25, 12 μM, triplicates
T1 sequence (P15090 2-132): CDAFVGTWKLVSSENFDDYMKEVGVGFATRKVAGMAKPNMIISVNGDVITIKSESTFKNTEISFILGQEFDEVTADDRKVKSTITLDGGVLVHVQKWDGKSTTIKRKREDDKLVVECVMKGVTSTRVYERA
Procedure: as §1

[3] = molecular target: T2, JAK2 (Homo sapiens, UniProt O60674); assay: Kinomescan active site-directed competition kinase binding assay; conditions: read-out: Percent Control at 10 µM (Lower Numbers Indicate Stronger Hits)
T2 construct: purchased Discoverx (Kinomescan)
Procedure: (§2) Kinase assays were performed using Kinomescan, by Discoverx, CA, USA and Caliper LabChip 3000 by Caliper Life sciences, USA as described by us previously. The determination of Mebendazole (MBZ) thermodynamic binding affinities (Kd) to kinase targets predicted by ES-Screen was performed by using active site-directed competition binding. Kinase-tagged T7 phage strains were grown in parallel in 24-well blocks in an E. coli host derived from the BL21 strain. E. coli bacteria were grown to log-phase and infected with T7 phage from a frozen stock (multiplicity of infection = 0.4) and incubated with shaking at 32 °C until lysis (90–150 min). The lysates were centrifuged (6000× g) and filtered (0.2 μm sieves) to remove cell debris. The remaining kinases were produced in HEK-293 cells and subsequently tagged with DNA for qPCR detection. […] The liganded beads were blocked with excess biotin and washed with blocking buffer (SeaBlock (Pierce), 1% BSA, 0.05% Tween 20, 1 mM DTT) to remove unbound ligands and to reduce non-specific phage binding. Binding reactions were assembled by combining kinases, control liganded affinity beads, and mebendazole in 1× binding buffer (20% SeaBlock, 0.17 × PBS, 0.05% Tween 20, 6 mM DTT). Mebendazole was prepared as 40× stocks in 100% DMSO and directly diluted into the assay. All reactions were performed in polypropylene 384-well plates in a final volume of 0.04 mL. The assay plates were incubated at room temperature with shaking for 1 h and the affinity beads were washed with wash buffer (1 × PBS, 0.05% Tween 20). […] The kinase concentration in the eluates was measured by qPCR. Ligands that bind the kinase active site and directly prevent kinase binding to the immobilized ligand will reduce the amount of kinase captured. […] The amount of kinase captured in test versus control samples were measured by using a quantitative, precise and ultra-sensitive qPCR method that detects the associated DNA label. Using the primary screen binding interactions are reported as ‘% Ctrl’ (Percent kinase remaining activity, Equation (8)), where lower numbers indicate stronger hits. (8) Percent Control (%Ctrl)=Mebendazole signal − Positive control signal/DMSO Negative control signal − Positive control signal × 100
(§3) In a similar manner, binding constants (Kd) for mebendazole-kinase interactions are calculated by measuring the amount of kinase captured as a function of the mebendazole concentration in a dose response manner. […] Most Kds were determined using a starting concentration = 30,000 nM. […] Binding constants (Kd) were calculated with a standard dose–response curve (ligand dose (x-axis)—qPCR signal (y-axis)) using the Hill Equation (9), with the Hill Slope set to −1. […]

[4] = molecular target: T3, MKNK2 (Homo sapiens, UniProt Q9HBH9); assay: as above; conditions: read-out: Percent Control at 10 µM (Lower Numbers Indicate Stronger Hits)
T3 construct: purchased Discoverx (Kinomescan)
Procedure: as §2, §3

[5] = molecular target: T4, RAF1 (Homo sapiens, UniProt P04049); assay: as above; conditions: read-out: Percent Control at 10 µM (Lower Numbers Indicate Stronger Hits)
T4 construct: purchased Discoverx (Kinomescan)
Procedure: as §2, §3

[6] = molecular target: T5, PIK3CG (Homo sapiens, UniProt P48736); assay: as above; conditions: read-out: Percent Control at 10 µM (Lower Numbers Indicate Stronger Hits)
T5 construct: purchased Discoverx (Kinomescan)
Procedure: as §2, §3

T3 sequence (Q9HBH9 whole entry): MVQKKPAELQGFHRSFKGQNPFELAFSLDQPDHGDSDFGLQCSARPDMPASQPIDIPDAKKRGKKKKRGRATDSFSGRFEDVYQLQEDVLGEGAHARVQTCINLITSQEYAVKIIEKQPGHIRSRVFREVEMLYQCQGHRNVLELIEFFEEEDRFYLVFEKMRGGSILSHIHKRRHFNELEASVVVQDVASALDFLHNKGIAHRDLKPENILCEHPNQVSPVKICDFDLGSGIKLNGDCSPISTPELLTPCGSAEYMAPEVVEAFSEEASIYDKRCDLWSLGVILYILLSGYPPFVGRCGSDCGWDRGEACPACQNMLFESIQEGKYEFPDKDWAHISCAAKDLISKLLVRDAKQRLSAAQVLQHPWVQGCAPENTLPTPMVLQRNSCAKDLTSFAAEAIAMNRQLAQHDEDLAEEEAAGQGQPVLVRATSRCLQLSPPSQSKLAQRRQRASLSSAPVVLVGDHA
T5 sequence (P48736 whole entry): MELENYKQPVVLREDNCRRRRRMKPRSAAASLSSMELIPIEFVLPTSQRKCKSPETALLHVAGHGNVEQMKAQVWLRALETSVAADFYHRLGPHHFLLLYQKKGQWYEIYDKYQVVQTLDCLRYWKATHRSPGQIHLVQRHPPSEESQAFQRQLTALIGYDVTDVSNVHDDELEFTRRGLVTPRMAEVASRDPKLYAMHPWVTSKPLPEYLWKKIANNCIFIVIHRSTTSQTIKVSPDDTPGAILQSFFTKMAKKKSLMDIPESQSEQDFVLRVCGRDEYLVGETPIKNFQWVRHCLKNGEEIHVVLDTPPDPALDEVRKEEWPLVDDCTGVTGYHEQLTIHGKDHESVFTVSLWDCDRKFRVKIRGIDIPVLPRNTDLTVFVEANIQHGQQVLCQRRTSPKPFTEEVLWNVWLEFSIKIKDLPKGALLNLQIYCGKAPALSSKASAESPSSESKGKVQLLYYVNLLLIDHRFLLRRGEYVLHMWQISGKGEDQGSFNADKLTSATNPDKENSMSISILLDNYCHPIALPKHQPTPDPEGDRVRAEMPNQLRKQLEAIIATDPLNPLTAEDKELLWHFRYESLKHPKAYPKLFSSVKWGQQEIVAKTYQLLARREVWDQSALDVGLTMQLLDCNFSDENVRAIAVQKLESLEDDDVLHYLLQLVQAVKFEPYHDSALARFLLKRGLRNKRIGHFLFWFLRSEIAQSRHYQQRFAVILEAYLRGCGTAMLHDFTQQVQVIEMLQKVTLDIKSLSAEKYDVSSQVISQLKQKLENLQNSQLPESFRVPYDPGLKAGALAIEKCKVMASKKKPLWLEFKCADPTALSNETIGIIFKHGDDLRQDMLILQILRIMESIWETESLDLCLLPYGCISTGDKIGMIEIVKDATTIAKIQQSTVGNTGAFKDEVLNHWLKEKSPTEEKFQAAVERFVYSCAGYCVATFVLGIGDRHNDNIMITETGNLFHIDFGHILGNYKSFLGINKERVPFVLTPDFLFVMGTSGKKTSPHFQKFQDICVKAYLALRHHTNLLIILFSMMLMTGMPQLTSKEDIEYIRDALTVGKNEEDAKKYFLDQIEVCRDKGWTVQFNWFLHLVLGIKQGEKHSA
T2 sequence (O60674 840-1132 limits assumed): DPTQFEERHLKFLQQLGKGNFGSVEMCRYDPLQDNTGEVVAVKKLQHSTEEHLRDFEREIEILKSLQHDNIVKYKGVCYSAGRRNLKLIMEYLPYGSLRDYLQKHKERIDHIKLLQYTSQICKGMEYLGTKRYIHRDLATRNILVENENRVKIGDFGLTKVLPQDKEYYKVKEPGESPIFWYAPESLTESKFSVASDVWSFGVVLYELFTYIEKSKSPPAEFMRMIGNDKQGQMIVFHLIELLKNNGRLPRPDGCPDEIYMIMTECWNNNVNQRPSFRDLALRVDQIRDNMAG
T4 sequence (P04049 whole entry): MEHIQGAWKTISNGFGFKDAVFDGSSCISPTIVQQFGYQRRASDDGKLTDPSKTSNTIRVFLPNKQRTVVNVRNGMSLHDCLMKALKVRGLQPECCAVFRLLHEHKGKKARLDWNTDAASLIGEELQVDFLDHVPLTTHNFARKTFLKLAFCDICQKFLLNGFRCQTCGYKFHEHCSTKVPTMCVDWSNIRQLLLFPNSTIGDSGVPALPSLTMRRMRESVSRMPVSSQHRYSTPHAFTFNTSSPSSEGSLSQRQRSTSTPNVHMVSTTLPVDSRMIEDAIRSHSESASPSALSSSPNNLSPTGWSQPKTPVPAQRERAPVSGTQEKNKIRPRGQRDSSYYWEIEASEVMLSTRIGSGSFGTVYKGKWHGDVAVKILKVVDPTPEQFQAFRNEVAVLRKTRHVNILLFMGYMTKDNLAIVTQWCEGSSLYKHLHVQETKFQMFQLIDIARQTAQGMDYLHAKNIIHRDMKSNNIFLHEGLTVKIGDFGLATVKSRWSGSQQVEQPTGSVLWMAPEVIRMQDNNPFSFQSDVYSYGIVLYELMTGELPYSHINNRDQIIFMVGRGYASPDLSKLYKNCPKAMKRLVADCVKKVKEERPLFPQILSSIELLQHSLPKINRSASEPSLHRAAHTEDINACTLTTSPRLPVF

Row | SMILES | binding to immobilized AKR1B1 in SPR [1] | binding to immobilized FABP4 in SPR [2] | Kd ([1]; SPR, AKR1B1, read-out: KD50) | Kd ([2]; SPR, FABP4, read-out: KD50) | percent of control kinase binding at 10 µM [3] | remaining binding at 10 µM [4] | remaining binding at 10 µM [5] | remaining binding at 10 µM [6]
1 | COc1ccc2c(c1)c(CC(=O)O)c(C)n2C(=O)c1ccc(Cl)cc1 [indomethacin] | in a dose-dependent manner | in a dose-dependent manner | – | – | – | – | – | –
2 | CC1(C)Cc2c(-c3ccccc3)c(-c3ccc(Cl)cc3)c(CC(=O)O)n2C1 [licofelone] | in a dose-dependent manner | in a dose-dependent manner | – | – | – | – | – | –
3 | COC(=O)Nc1nc2ccc(C(=O)c3ccccc3)cc2[nH]1 [mebendazole] | bind directly, in a dose-dependent manner | bind directly, in a dose-dependent manner | 5.5 µM | 8.4 µM | 39% | 46% | 23% | 18%
4 | O=C(O)CCc1nc(-c2ccccc2)c(-c2ccccc2)o1 [oxaprozin] | in a dose-dependent manner | in a dose-dependent manner | – | – | – | – | – | –
